Active and inactive are the calls of the source. No cut-off for these calls is given here.

This note sets out measurements from ChEMBL document CHEMBL4002569, “Improved anticancer and antiparasitic activity of new lawsone Mannich bases” (Eur J Med Chem, 2017).

The subject of one data set is MDA-MB-231. The data set is described as follows: Antiproliferative activity against human MDA-MB-231 cells after 96 hrs by MTT assay. As to conditions: MDA-MB-231, 96 h. It counts as functional, cell-based.
The next data set deals with BXPC-3. The data set is described as follows: Antiproliferative activity against human BxPC3 cells after 96 hrs by MTT assay. As to conditions: BXPC-3, 96 h. The class given is functional, cell-based.
Another data set has as its system PC-3. The data set is described as follows: Antiproliferative activity against human PC3 cells after 96 hrs by MTT assay. The class given is functional, cell-based. As to conditions: PC-3, 96 h.
In a further data set the test system is MCF-10A. The data set is described as follows: Antiproliferative activity against human MCF10A cells at 50 uM after 96 hrs by MTT assay. The class given is cell-based.
Data set [1] has as its system 518A2. As to the kind of experiment: Antiproliferative activity against human 518A2 cells after 72 hrs by MTT assay. It counts as functional, cell-based. As to conditions: 518A2, 72 h.
A further data set has as its system HCT-116. The data set is described as follows: Antiproliferative activity against human HCT116 cells after 72 hrs by MTT assay. As to conditions: HCT-116, 72 h. It counts as functional, cell-based.
For another data set, the system named is KB-V1. As to the kind of experiment: Antiproliferative activity against vinblastine-resistant human KBV1 cells after 72 hrs by MTT assay. The class given is functional, cell-based. As to conditions: KB-V1, 72 h.
Another data set concerns PANC-1. The data set is described as follows: Antiproliferative activity against human PANC1 cells after 72 hrs by MTT assay. It counts as functional, cell-based. Particulars: PANC-1, 72 h.
Data set [2] can be described thus: Selectivity index, ratio of IC50 for human MCF10A cells to IC50 for human 518A2 cells. It counts as functional.
A short description of data set [3]: Selectivity index, ratio of IC50 for human MCF10A cells to IC50 for human HCT116 cells. It counts as functional.
Data set [4] can be described thus: Selectivity index, ratio of IC50 for human MCF10A cells to IC50 for vinblastine-resistant human KBV1 cells. It counts as functional.
Data set [5] in a line: Selectivity index, ratio of IC50 for human MCF10A cells to IC50 for human PANC1 cells. The class given is functional.
A short description of data set [6]: Selectivity index, ratio of IC50 for human MCF10A cells to IC50 for human MDA-MB-231 cells. It counts as functional.
The nature of data set [7]: Selectivity index, ratio of IC50 for human MCF10A cells to IC50 for human BxPC3 cells. The class given is functional.
The nature of data set [8]: Selectivity index, ratio of IC50 for human MCF10A cells to IC50 for human PC3 cells. The class given is functional.
In data set [9] the test system is 518A2. As to the kind of experiment: Induction of reactive oxygen species generation in human 518A2 cells at 0.1 uM after 24 hrs by NBT assay relative to control. It counts as functional.
Data set [10] relates to 518A2. As to the kind of experiment: Induction of reactive oxygen species generation in human 518A2 cells at 0.5 uM after 24 hrs by NBT assay relative to control. It counts as functional.
Data set [11] has as its system Trypanosoma brucei brucei. The data set is described as follows: Antitrypanosomal activity against bloodstream trypomastigote form of Trypanosoma brucei brucei 65.3 […] after 72 hrs by Alamar Blue assay. The class given is functional, cell-based. Particulars: Trypanosoma brucei, 65.3, 72 h.
In data set [12] the test system is Trypanosoma brucei brucei. The data set is described as follows: Antitrypanosomal activity against bloodstream trypomastigote form of Trypanosoma brucei brucei 65.3 assessed as deformation of microtubule cytoskeleton at 1 to 10 uM after 3 to 6 hrs by DAPI staining-based fluorescence microscopic method. The class given is functional.
In data set [13] the test system is Trypanosoma brucei brucei. As to the kind of experiment: Antitrypanosomal activity against bloodstream trypomastigote form of Trypanosoma brucei brucei 65.3 assessed as decrease in parasite viability at 1 to 10 uM after 1 hr by DAPI staining-based fluorescence microscopic method. It counts as functional.
Data set [14] relates to HeLa. As to the kind of experiment: Cytotoxicity against human HeLa cells assessed as effect on cytoskeleton at 10 uM after 1 to 9 hrs by DAPI staining-based fluorescence microscopic method. It counts as cell-based.
The test system of data set [15] is HeLa. As to the kind of experiment: Cytotoxicity against human HeLa cells assessed as effect on cell viability at 10 uM after 1 to 9 hrs by DAPI staining-based fluorescence microscopic method.
Data set [16] concerns Entamoeba histolytica. The data set is described as follows: Antiamoebic activity against Entamoeba histolytica assessed as growth inhibition at 100 ug/ml after 24 hrs by trypan blue dye-based hemocytometer relative to control. It counts as functional. As to conditions: read-out: GI.
Data set [17] deals with Entamoeba histolytica. The data set is described as follows: Antiamoebic activity against Entamoeba histolytica assessed as growth inhibition at 50 ug/ml after 24 hrs by trypan blue dye-based hemocytometer relative to control. Particulars: read-out: GI. The class given is functional.
In data set [18] the test system is Entamoeba histolytica. As to the kind of experiment: Antiamoebic activity against Entamoeba histolytica assessed as growth inhibition at 25 ug/ml after 24 hrs by trypan blue dye-based hemocytometer relative to control. It counts as functional. As to conditions: read-out: GI.
For data set [19], the system named is Entamoeba histolytica. The data set is described as follows: Antiamoebic activity against Entamoeba histolytica assessed as growth inhibition at 100 ug/ml after 48 hrs by trypan blue dye-based hemocytometer relative to control. It counts as functional. As to conditions: read-out: GI.
The subject of data set [20] is Entamoeba histolytica. As to the kind of experiment: Antiamoebic activity against Entamoeba histolytica assessed as growth inhibition at 50 ug/ml after 48 hrs by trypan blue dye-based hemocytometer relative to control. It counts as functional. As to conditions: read-out: GI.
For data set [21], the system named is Entamoeba histolytica. As to the kind of experiment: Antiamoebic activity against Entamoeba histolytica assessed as growth inhibition at 25 ug/ml after 48 hrs by trypan blue dye-based hemocytometer relative to control. Particulars: read-out: GI. The class given is functional.
Data set [22] deals with Entamoeba histolytica. The data set is described as follows: Antiamoebic activity against Entamoeba histolytica assessed as growth inhibition at 100 ug/ml after 72 hrs by trypan blue dye-based hemocytometer relative to control. It counts as functional. As to conditions: read-out: GI.
In data set [23] the test system is Entamoeba histolytica. The data set is described as follows: Antiamoebic activity against Entamoeba histolytica assessed as growth inhibition at 50 ug/ml after 72 hrs by trypan blue dye-based hemocytometer relative to control. It counts as functional. As to conditions: read-out: GI.
Data set [24] deals with Entamoeba histolytica. As to the kind of experiment: Antiamoebic activity against Entamoeba histolytica assessed as growth inhibition at 25 ug/ml after 72 hrs by trypan blue dye-based hemocytometer relative to control. As to conditions: read-out: GI. The class given is functional.
The test system of data set [25] is Entamoeba histolytica. As to the kind of experiment: Antiamoebic activity against Entamoeba histolytica assessed as growth inhibition at 200 ug/ml after 24 hrs by trypan blue dye-based hemocytometer relative to control. It counts as functional. As to conditions: read-out: GI.
The test system of data set [26] is Entamoeba histolytica. As to the kind of experiment: Antiamoebic activity against Entamoeba histolytica assessed as growth inhibition at 200 ug/ml after 48 hrs by trypan blue dye-based hemocytometer relative to control. The class given is functional. Particulars: read-out: GI.
Data set [27] concerns Entamoeba histolytica. The data set is described as follows: Antiamoebic activity against Entamoeba histolytica assessed as growth inhibition at 200 ug/ml after 72 hrs by trypan blue dye-based hemocytometer relative to control. As to conditions: read-out: GI. It counts as functional.

For the molecule `CCCCCCCCCCCCCCCCNC(C1=C(O)C(=O)c2ccccc2C1=O)c1ccccn1` (centres undefined), the IC50 with MDA-MB-231 came out at 1100 nM; in the data set with BXPC-3, 820 nM; with PC-3, 670 nM; with 518A2 [1], 1410 nM; in the data set on HCT-116, 2080 nM; in the data set with KB-V1, 830 nM. Also, the IC50 with PANC-1 worked out at 2190 nM; in data set [11], 303 nM. The “growth inhibition (GI)” value in the data set on MCF-10A is reported as “Non-Toxic”. The “Ratio IC50” value is on record as above 35 in data set [2]; above 24 in data set [3]; above 60 in data set [4]; above 22 in data set [5]; above 46 in data set [6]; above 61 in data set [7]. Also, in [8], the “Ratio IC50” value is on record as above 75. Also, the Activity is on record as 50% in the data set on 518A2 [9], “Non-Toxic” with HeLa [14] and “Non-Toxic” in the data set with HeLa [15]. Besides, the result (in the data set with 518A2 [10]; in [12]) was Active. Moreover, the result in [13] was inactive. Further, the inhibition of growth at 100 µg/mL with Entamoeba histolytica [16] was 77.8%; in the data set on Entamoeba histolytica [19] it was 80.9%; with Entamoeba histolytica [22], 82.8%. The results for the inhibition of growth at 50 µg/mL in the data set with Entamoeba histolytica [17], in the data set on Entamoeba histolytica [20] and in the data set with Entamoeba histolytica [23] were 66.6%, 82.1% and 85.3%, respectively. The inhibition of growth at 25 µg/mL with Entamoeba histolytica [18] stood at 60%; in the data set with Entamoeba histolytica [21], 66%; in the data set on Entamoeba histolytica [24], 70.6%.
On to `Cc1ncc([N+](=O)[O-])n1CCO` [METRONIDAZOLE], for which the inhibition of growth at 200 µg/mL in the data set with Entamoeba histolytica [25] was 54.1%; in the data set with Entamoeba histolytica [26], 58.7%; in the data set on Entamoeba histolytica [27], 60.4%.
